The results in this text go back to patent US12371428B2 (Exelixis, Inc., priority 2019, dated 2025).

What all share (type): cell-based
The target of assay [1] is AXL (phospho-AXL, Gas6-stimulated A-172 glioblastoma cells) (Homo sapiens (Human), UniProt P30530). Kind of assay: AXL autophosphorylation ELISA in A-172 cells (Example E). The following applies: cellular activity; AXL autophosphorylation ELISA in A-172 cells; read-out: Axl IC50. In short, it runs like this:
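Phospho-AXL in lysates was quantified by ELISA, normalised to DMSO (100%) and reference inhibitor (0%) controls. IC50 by 4-parameter logistic fit.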

Assay [2] concerns the target KDR (phospho-KDR, VEGF165-stimulated HUVEC cells) (Homo sapiens (Human), UniProt P35968). Kind of assay: KDR autophosphorylation ELISA in HUVEC cells (Example G). The following applies: cellular activity; KDR autophosphorylation ELISA in HUVEC cells. In a few lines:
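HUVECs were serum-starved 24 h, given compound as an 8-point dilution series (0.3% DMSO final) for 1 h, then stimulated with 100 ng/mL VEGF165 for 5 min. Lysate phospho-KDR was quantified by sandwich ELISA against a phospho-KDR standard, and IC50s came from a 4-parameter logistic fit.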

Assay [3] deals with Met (phospho-Met, HGF-stimulated PC-3 prostate cancer cells) (Homo sapiens (Human), UniProt P08581). Kind of assay: Met autophosphorylation ELISA in PC-3 cells (Example F). The following applies: cellular activity; Met autophosphorylation ELISA in PC-3 cells; read-out: c-Met IC50. In a few lines:
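Sandwich ELISA for phospho-Met (panTyr) in PC-3 lysates. Cells starved 3 h serum-free, compound 1 h (8-pt curve, 0.3% DMSO), HGF 100 ng/mL 10 min. 100% = HGF + DMSO; 0% = HGF + reference inhibitor. IC50 by 4-parameter fit.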

The target in assay [4] is Mer (phospho-Mer, MERTK-transfected 293A cells) (Homo sapiens (Human), UniProt Q12866). Kind of assay: Mer autophosphorylation ELISA in transient transfected 293A cells (Example H). Particulars: cellular activity; Mer autophosphorylation ELISA in transient transfected 293A cells. In a few lines: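 Human MERTK transiently transfected into 293A cells; compounds as 8-point dose curve in serum-free medium (0.3% DMSO final), 1 h. Lysates assayed by phospho-Mer sandwich ELISA against phospho-Mer standard; DMSO = 100%, reference inhibitor = 0% activity; IC50 from 4-parameter logistic fit.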
Chain of Mer (phospho-Mer, MERTK-transfected 293A cells) (Q12866 21-999): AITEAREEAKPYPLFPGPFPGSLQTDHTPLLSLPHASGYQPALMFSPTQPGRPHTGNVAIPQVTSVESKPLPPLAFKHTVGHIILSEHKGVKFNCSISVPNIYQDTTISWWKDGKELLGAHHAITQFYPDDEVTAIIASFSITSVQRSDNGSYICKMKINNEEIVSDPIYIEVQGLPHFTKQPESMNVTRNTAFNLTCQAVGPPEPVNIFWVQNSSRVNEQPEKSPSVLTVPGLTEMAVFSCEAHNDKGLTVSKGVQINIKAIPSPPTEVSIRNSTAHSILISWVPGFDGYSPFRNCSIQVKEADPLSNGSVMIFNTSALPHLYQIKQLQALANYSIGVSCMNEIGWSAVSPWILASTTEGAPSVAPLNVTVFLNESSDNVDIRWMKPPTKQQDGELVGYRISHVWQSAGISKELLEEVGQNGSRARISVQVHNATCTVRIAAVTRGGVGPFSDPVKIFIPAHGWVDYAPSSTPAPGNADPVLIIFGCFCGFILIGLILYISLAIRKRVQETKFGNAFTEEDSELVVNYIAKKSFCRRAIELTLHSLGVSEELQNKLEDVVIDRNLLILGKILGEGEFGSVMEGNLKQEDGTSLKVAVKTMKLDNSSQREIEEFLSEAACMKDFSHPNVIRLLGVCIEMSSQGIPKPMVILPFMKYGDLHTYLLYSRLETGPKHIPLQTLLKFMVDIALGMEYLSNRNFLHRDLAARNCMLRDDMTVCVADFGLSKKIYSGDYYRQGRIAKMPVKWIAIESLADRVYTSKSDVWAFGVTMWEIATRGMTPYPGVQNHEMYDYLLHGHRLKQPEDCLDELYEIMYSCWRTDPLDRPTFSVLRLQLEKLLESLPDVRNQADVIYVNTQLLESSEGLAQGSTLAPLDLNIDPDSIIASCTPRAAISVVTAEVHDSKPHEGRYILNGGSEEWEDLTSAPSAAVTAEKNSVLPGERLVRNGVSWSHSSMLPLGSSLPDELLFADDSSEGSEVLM

Chain of AXL (phospho-AXL, Gas6-stimulated A-172 glioblastoma cells) (P30530 26-894): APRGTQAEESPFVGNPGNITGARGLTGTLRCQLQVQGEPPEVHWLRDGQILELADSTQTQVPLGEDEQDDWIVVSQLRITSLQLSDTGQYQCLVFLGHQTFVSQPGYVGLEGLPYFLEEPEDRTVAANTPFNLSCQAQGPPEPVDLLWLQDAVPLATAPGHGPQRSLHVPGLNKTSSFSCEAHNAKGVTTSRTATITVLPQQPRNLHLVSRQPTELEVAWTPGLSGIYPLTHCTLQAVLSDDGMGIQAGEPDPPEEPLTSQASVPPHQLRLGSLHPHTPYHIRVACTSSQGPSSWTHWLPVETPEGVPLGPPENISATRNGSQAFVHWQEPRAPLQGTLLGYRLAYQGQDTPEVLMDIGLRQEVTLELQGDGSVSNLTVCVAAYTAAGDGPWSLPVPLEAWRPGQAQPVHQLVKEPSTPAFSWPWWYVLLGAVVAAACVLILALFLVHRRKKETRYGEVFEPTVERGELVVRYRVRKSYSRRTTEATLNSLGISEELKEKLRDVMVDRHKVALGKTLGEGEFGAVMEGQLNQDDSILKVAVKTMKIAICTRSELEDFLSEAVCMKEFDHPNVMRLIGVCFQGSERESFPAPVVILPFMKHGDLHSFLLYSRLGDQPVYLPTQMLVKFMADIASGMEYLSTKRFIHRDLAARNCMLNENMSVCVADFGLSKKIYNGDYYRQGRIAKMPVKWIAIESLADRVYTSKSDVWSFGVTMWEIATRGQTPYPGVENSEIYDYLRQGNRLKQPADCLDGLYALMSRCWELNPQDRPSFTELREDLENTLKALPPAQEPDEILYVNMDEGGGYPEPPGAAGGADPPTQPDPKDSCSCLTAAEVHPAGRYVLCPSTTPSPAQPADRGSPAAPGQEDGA
Chain of KDR (phospho-KDR, VEGF165-stimulated HUVEC cells) (P35968 20-1356): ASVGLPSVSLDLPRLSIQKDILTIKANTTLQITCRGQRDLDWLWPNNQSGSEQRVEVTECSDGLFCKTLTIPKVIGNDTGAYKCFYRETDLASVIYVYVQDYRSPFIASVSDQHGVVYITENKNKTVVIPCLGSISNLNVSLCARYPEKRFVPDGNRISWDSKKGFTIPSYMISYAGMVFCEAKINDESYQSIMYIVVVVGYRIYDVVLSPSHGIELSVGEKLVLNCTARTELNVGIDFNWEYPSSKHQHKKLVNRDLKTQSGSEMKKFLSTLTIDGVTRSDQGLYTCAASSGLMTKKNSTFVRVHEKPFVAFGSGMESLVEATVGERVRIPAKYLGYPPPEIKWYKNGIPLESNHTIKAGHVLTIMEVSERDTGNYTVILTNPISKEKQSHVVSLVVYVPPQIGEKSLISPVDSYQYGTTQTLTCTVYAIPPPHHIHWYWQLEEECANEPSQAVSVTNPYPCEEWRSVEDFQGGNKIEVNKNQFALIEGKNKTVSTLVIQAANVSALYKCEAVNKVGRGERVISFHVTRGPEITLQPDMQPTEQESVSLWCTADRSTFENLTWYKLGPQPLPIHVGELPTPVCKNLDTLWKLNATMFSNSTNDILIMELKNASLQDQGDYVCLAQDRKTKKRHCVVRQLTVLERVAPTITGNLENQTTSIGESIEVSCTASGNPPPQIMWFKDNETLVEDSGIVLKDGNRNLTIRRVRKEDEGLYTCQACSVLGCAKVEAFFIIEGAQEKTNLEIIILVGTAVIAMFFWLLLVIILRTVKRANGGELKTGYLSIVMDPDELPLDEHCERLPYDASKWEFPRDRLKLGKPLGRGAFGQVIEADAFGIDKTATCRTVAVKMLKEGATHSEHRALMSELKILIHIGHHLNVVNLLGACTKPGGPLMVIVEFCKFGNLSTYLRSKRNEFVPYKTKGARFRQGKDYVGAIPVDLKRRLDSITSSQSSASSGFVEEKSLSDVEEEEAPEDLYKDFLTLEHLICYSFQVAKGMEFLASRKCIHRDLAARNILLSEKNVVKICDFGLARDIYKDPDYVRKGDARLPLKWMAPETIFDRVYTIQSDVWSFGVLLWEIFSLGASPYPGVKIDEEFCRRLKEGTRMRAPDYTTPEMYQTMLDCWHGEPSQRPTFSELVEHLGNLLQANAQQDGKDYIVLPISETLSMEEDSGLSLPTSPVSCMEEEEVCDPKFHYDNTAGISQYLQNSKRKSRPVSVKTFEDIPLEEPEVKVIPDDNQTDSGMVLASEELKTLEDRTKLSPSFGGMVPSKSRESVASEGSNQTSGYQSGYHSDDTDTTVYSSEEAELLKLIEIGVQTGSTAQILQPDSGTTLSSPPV
Chain of Met (phospho-Met, HGF-stimulated PC-3 prostate cancer cells) (P08581 25-1390): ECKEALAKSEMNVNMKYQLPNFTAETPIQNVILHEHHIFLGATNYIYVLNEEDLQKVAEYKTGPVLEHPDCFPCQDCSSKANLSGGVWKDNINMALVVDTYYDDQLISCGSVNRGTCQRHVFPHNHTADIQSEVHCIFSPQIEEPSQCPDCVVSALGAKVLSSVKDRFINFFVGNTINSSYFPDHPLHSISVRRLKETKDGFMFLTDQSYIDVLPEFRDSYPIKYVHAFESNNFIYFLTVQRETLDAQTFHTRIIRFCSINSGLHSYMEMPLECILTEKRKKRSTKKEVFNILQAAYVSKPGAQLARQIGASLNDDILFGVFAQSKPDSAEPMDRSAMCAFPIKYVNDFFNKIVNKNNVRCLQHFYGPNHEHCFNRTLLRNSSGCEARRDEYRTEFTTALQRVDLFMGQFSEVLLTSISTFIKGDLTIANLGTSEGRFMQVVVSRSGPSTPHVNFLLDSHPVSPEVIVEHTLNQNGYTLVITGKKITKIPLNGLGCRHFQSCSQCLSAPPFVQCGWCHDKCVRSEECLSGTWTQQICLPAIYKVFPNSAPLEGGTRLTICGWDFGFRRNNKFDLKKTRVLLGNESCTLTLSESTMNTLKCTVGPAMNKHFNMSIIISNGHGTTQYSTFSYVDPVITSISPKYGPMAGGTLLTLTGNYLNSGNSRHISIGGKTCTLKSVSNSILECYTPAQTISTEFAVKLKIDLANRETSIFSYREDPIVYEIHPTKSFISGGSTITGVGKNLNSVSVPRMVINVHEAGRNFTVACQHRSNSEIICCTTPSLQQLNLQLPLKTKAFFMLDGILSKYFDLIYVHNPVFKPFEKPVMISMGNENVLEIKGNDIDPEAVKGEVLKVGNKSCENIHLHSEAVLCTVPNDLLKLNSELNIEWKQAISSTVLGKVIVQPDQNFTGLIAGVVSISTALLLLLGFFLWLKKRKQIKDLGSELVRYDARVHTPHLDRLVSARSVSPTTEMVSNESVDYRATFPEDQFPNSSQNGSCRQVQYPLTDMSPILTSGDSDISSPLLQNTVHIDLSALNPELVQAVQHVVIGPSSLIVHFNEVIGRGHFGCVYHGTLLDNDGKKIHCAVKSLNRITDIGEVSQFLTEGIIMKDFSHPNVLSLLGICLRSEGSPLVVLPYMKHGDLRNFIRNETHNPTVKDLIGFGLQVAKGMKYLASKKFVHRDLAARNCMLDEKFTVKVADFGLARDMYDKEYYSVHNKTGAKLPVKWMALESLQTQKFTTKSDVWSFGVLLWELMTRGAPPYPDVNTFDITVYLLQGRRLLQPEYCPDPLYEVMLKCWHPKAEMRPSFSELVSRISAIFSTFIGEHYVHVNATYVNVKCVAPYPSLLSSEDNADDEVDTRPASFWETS

For the molecule `CCn1nc(C(=O)Nc2ccc(Oc3ccnc4cc(OC)c(OC)cc34)c(F)c2)c(=O)c(-c2ccc(F)cc2)c1C` [Compound 573, N-[4-(6,7-Dimethoxyquinolin-4-yl)oxy-3-fluorophenyl]-1-ethyl-5-(4-fluorophenyl)-6-methyl-4-oxopyridazine-3-carboxamide], the IC50 in assay [1], in assay [2], in assay [3] and in assay [4] was under 100 nM throughout.
In the case of `COc1cnc2c(Oc3ccc(NC(=O)c4c(C)nc(C)c(-c5ccc(F)c(F)c5)c4O)cc3F)ccnc2c1` [Compound 687, 5-(3,4-difluorophenyl)-N-[3-fluoro-4-[(7-methoxy-1,5-naphthyridin-4-yl)oxy]phenyl]-4-hydroxy-2,6-dimethylpyridine-3-carboxamide], the IC50 in assay [1], in assay [2], in assay [3] and in assay [4] was under 100 nM each time.
Regarding `COc1cc2nccc(Oc3ccc(NC(=O)c4c(OC)c(C(C)=O)cn(-c5ccc(F)cc5)c4=O)cc3F)c2nc1OC` [Compound 754, 5-acetyl-N-[4-[(6,7-dimethoxy-1,5-naphthyridin-4-yl)oxy]-3-fluorophenyl]-1-(4-fluorophenyl)-4-methoxy-2-oxopyridine-3-carboxamide], the IC50 was under 100 nM in assay [1], over 300 nM in assay [2], under 100 nM in assay [3] and under 100 nM in assay [4].
For the molecule `COc1cc2nccc(Oc3ccc(NC(=O)c4c(C)n(C)c(C)c(-c5ccc(F)cc5C)c4=O)cc3F)c2nc1OC` [Compound 774, N-[4-[(6,7-dimethoxy-1,5-naphthyridin-4-yl)oxy]-3-fluorophenyl]-5-(4-fluoro-2-methylphenyl)-1,2,6-trimethyl-4-oxopyridine-3-carboxamide], the half-inhibitory concentration (IC50) in assay [1] is under 100 nM; in assay [2], 100 to 300 nM; in assay [3], under 100 nM; in assay [4] it was under 100 nM.
On to `C=C(C)c1cnc2c(Oc3ccc(NC(=O)c4nn(CC)c(C)c(-c5ccc(F)cc5)c4=O)cc3F)ccnc2c1` [Compound 475, 1-ethyl-5-(4-fluorophenyl)-N-[3-fluoro-4-[(7-prop-1-en-2-yl-1,5-naphthyridin-4-yl)oxy]phenyl]-6-methyl-4-oxopyridazine-3-carboxamide], for which the half-inhibitory concentration (IC50) in assay [1], in assay [2], in assay [3] and in assay [4] was under 100 nM each time.
As to `COc1cc2nccc(Oc3ccc(NC(=O)c4cc(-c5ccc(F)cc5)c(C)nn4)cc3F)c2nc1OC` [Compound 601, N-[4-[(6,7-Dimethoxy-1,5-naphthyridin-4-yl)oxy]-3-fluorophenyl]-5-(4-fluorophenyl)-6-methylpyridazine-3-carboxamide], the half-maximal inhibitory concentration (IC50) was over 300 nM in assay [1], over 300 nM in assay [2], over 300 nM in assay [3] and under 100 nM in assay [4].
For `CCc1c(C)c(C(=O)Nc2ccc(Oc3ccnc4cc(OC)c(OC)nc34)cc2)c(=O)n(-c2ccc(F)cc2)c1C` [Compound 331, N-[4-[(6,7-dimethoxy-1,5-naphthyridin-4-yl)oxy]phenyl]-5-ethyl-1-(4-fluorophenyl)-4,6-dimethyl-2-oxopyridine-3-carboxamide], the IC50 was under 100 nM in assay [1], over 300 nM in assay [2], under 100 nM in assay [3] and under 100 nM in assay [4].
Turning to `COc1cc2nccc(Oc3ccc(NC(=O)c4cnc(C)c(-c5ccc(F)cc5F)c4O)cc3F)c2nc1OC` [Compound 395, 5-(2,4-difluorophenyl)-N-[4-[(6,7-dimethoxy-1,5-naphthyridin-4-yl)oxy]-3-fluorophenyl]-4-hydroxy-6-methylpyridine-3-carboxamide], the half-inhibitory concentration (IC50) in assay [1], in assay [2], in assay [3] and in assay [4] was under 100 nM each time.
In the case of `COc1cc2nccc(Oc3ccc(NC(=O)c4cn5c(c(-c6ccc(F)cc6)c4=O)CCCC5)cc3F)c2nc1OC` [Compound 363, N-[4-[(6,7-dimethoxy-1,5-naphthyridin-4-yl)oxy]-3-fluorophenyl]-1-(4-fluorophenyl)-2-oxo-6,7,8,9-tetrahydroquinolizine-3-carboxamide], the IC50 in assay [1], in assay [2], in assay [3] and in assay [4] was under 100 nM throughout.
Turning to `COc1cc2nccc(Oc3cc(F)c(NC(=O)c4c(C)n(C)c(C)c(-c5ccc(F)cc5C)c4=O)cc3F)c2nc1OC` [Compound 772, N-[4-[(6,7-dimethoxy-1,5-naphthyridin-4-yl)oxy]-2,5-difluorophenyl]-5-(4-fluoro-2-methylphenyl)-1,2,6-trimethyl-4-oxopyridine-3-carboxamide], the concentration for half-maximal inhibition (IC50) in assay [1] was under 100 nM; in assay [2], 100 to 300 nM; in assay [3], under 100 nM; in assay [4], under 100 nM.
In the case of `COc1cc2nccc(Oc3ccc(NC(=O)c4cn(CC(F)F)c(C)c(-c5ccc(F)cc5C)c4=O)cc3)c2nc1OC` [Compound 722, 1-(2,2-difluoroethyl)-N-[4-[(6,7-dimethoxy-1,5-naphthyridin-4-yl)oxy]phenyl]-5-(4-fluoro-2-methylphenyl)-6-methyl-4-oxopyridine-3-carboxamide], the half-maximal inhibitory concentration (IC50) in assay [1] is under 100 nM; in assay [2], over 300 nM; in assay [3], under 100 nM; in assay [4], under 100 nM.
Turning to `COc1cc2nccc(Oc3ccc(NC(=O)c4c(C)nnc(-c5ccc(F)cc5)c4OC)cc3F)c2nc1OC` [Compound 657, N-[4-[(6,7-dimethoxy-1,5-naphthyridin-4-yl)oxy]-3-fluorophenyl]-6-(4-fluorophenyl)-5-methoxy-3-methylpyridazine-4-carboxamide], the 50% inhibitory concentration (IC50) in assay [1], in assay [2], in assay [3] and in assay [4] was under 100 nM throughout.
Regarding `COCc1nc(C)c(-c2ccc(F)cc2)c(O)c1C(=O)Nc1ccc(Oc2ccnc3cc(C)c(OC)nc23)c(F)c1` [Compound 469, N-[3-fluoro-4-[(6-methoxy-7-methyl-1,5-naphthyridin-4-yl)oxy]phenyl]-5-(4-fluorophenyl)-4-hydroxy-2-(methoxymethyl)-6-methylpyridine-3-carboxamide], the IC50 in assay [1], in assay [2], in assay [3] and in assay [4] was under 100 nM throughout.
Turning to `COCCOc1cnc2c(Oc3ccc(NC(=O)c4c(C)nc(C)c(-c5ccc(F)cc5C)c4O)cc3)ccnc2c1` [Compound 724, 5-(4-fluoro-2-methylphenyl)-4-hydroxy-N-[4-[[7-(2-methoxyethoxy)-1,5-naphthyridin-4-yl]oxy]phenyl]-2,6-dimethylpyridine-3-carboxamide], the concentration for half-maximal inhibition (IC50) in assay [1], in assay [2], in assay [3] and in assay [4] was under 100 nM in each case.
For the molecule `COc1cnc2c(Oc3ccc(NC(=O)c4cnc(C)c(-c5ccc(OC)c(C)c5)c4O)cc3F)ccnc2c1` [Compound 699, N-[3-fluoro-4-[(7-methoxy-1,5-naphthyridin-4-yl)oxy]phenyl]-4-hydroxy-5-(4-methoxy-3-methylphenyl)-6-methylpyridine-3-carboxamide], the IC50 is over 300 nM in assay [1], under 100 nM in assay [2], 100 to 300 nM in assay [3] and under 100 nM in assay [4].
As to `COc1cnc2c(Oc3ccc(NC(=O)c4c(C)nc(C)c(-c5ccc(C(C)C)cc5)c4O)cc3F)ccnc2c1` [Compound 690, N-[3-fluoro-4-[(7-methoxy-1,5-naphthyridin-4-yl)oxy]phenyl]-4-hydroxy-2,6-dimethyl-5-(4-propan-2-ylphenyl)pyridine-3-carboxamide], the half-inhibitory concentration (IC50) in assay [1] was over 300 nM; in assay [2], over 300 nM; in assay [3] it was over 300 nM; in assay [4], 100 to 300 nM.
With `COc1cc2nccc(Oc3ccc(NC(=O)c4cn(CCO)c(CO)c(-c5ccc(F)cc5C)c4=O)cc3F)c2nc1OC` [Compound 765, N-[4-[(6,7-dimethoxy-1,5-naphthyridin-4-yl)oxy]-3-fluorophenyl]-5-(4-fluoro-2-methylphenyl)-1-(2-hydroxyethyl)-6-(hydroxymethyl)-4-oxopyridine-3-carboxamide], the IC50 is under 100 nM in assay [1], over 300 nM in assay [2], under 100 nM in assay [3] and under 100 nM in assay [4].
As to `COCc1cnn(-c2ccc(F)cc2)c(=O)c1C(=O)Nc1ccc(Oc2ccnc3cc(OC)cnc23)c(F)c1` [Compound 532, N-[3-fluoro-4-[(7-methoxy-1,5-naphthyridin-4-yl)oxy]phenyl]-2-(4-fluorophenyl)-5-(methoxymethyl)-3-oxopyridazine-4-carboxamide], the IC50 in assay [1] is under 100 nM; in assay [2], over 300 nM; in assay [3], under 100 nM; in assay [4], under 100 nM.
